{"source": "patent US20250099475A1", "about": "“METHODS OF TREATING HYPERTENSION BY PERIODIC SUPPRESSION OF ALDOSTERONE SYNTHASE” (Mineralys Therapeutics, Inc., priority 2022, published 2025)", "key": {"cardiovascular system": {"tested_on": "cardiovascular system", "assay": "Cardiovascular system in telemetered monkeys", "assay_type": "in vivo, cynomolgus monkey", "details": "single oral doses up to 100-mg/kg as free base", "experimental": "Effects of Compound A on the cardiovascular system were evaluated with conscious telemetered cynomolgus monkeys. Single doses of 0, 10, 30, or 100 mg/kg of Compound A as free base were orally administered to four male monkeys in a Latin-square design with a 7-day interval between dosing. Blood pressure, heart rate, and electrocardiogram parameters (PR interval, QRS duration, QT interval, and QTcB) were evaluated up to 24 hours after each dosing."}, "[1]": {"assay": "Phase 1 part 2 multiple ascending dose: pharmacokinetics", "assay_type": "in vivo, human", "details": "for half-life: male, human, plasma, oral", "experimental": "A 4-part, Phase 1 randomized, double-blind, placebo-controlled, first-in-human study was performed to determine the safety, tolerability, PK, and PD of single ascending doses (SADs; part 1) and multiple ascending doses (MADs; part 2) of Compound A HBr in healthy participants. The study also assessed whether there were sex (part 3) and age-related (part 4) effects on the PK of a single dose of Compound A HBr. The study was approved by the local independent ethics committee; the BEBO foundation in Assen, Netherlands; and the Central Committee on Research Involving Human Subjects in The Hague, Netherlands; and conducted according to the provisions of the Declaration of Helsinki. Written informed consent was obtained from each study participant before conducting any protocol-related procedures.\nIn part 2, Compound A HBr or placebo was administered to a total of 36 healthy Caucasian men aged 19 to 54 years (inclusive) in 3 cohorts of 12 participants each. In each cohort, 9 participants were randomized to receive multiple doses of Compound A HBr and 3 participants were randomized to receive matching placebo. The participants received daily doses in the fed state from Day 1 to Day 7. The doses were administered in an ascending order per cohort. Progression to the next dose level and dose selection were based on available data from part 1 and the preceding dose cohort in part 2 (safety, tolerability, and PD data [up to 48 hours post-final dose] and available PK data [up to 24 hours post-final dose] from a minimum of 10 participants [Compound A HBr n≥7] in the preceding dose cohort). The final dose levels of Compound A HBr for part 2 were 40, 120, and 360 mg. An ACTH challenge test was performed on Day −2 and on Day 6 to evaluate Compound A HBr selectivity for aldosterone synthesis. Plasma concentrations of aldosterone and 11-deoxycortisol and serum concentrations of cortisol and 11-DOC were measured pre-ACTH dose and 30 and 60 minutes post-ACTH dose on Day −2 and Day 6.\nPlasma PK parameters were derived by non-compartmental analysis using WinNonlin® (version 6.3). Dose proportionality was assessed using the power model with AUC0-∞, AUC0-last, and Cmax for part 1 (SAD) and with AUC0-last, AUC0-∞, AUC0-τ, and Cmax for part 2 (MAD). A linear model (ln(Y)=α+β×ln(X), where Y is the pharmacokinetic parameter and X is the dose) was used to fit the power model, after log-transformation of the parameters. Dose proportionality was concluded if the 95% confidence interval (CI) for slope (β) included the value 1.\nAn analytical method for the determination of Compound A in human plasma (dipotassium ethylenediaminetetraacetic acid [K2-EDTA]) and human urine using solid-phase extraction and high-performance liquid chromatography with mass spectrometric detection was successfully validated over the concentration range 0.1000 ng/mL (lower limit of quantification) to 100.0 ng/mL prior to initiation of the clinical trial. […] For all other analytes, validated quantitative measurement methods were used."}}, "note": "Where two headings read alike, the source gives them in different places.", "data": [{"compound": "CC(=O)N[C@H]1CC[C@H](NC(=O)CN2CCN(c3nncc(-c4ccc(C)cc4)n3)CC2)CC1", "note": "[Compound A]", "values": [{"measurement": "effects on cardiovascular parameters (blood pressure, heart rate, electrocardiogram)", "setting": "cardiovascular system", "result": "no effects"}]}, {"compound": "CC(=O)N[C@H]1CC[C@H](NC(=O)CN2CCN(c3nncc(-c4ccc(C)cc4)n3)CC2)CC1", "note": "[Compound A HBr]", "values": [{"measurement": "AUC0-24, mean (SD)", "setting": "[1]; 40 mg once daily, Day 1, fed", "result": "1574 (282) ng × h/mL"}, {"measurement": "Cmax, mean (SD)", "setting": "[1]; 40 mg once daily, Day 1, fed", "result": "252 (64) ng/mL"}, {"measurement": "Tmax, median and range", "setting": "[1]; 40 mg once daily, Day 1, fed", "result": "3 (0.5-5) h"}, {"measurement": "AUC0-24, mean (SD)", "setting": "[1]; 40 mg once daily, Day 7, fed", "result": "1795 (312) ng × h/mL"}, {"measurement": "Cmax, mean (SD)", "setting": "[1]; 40 mg once daily, Day 7, fed", "result": "365 (46) ng/mL"}, {"measurement": "T 1/2, mean (SD)", "setting": "[1]; 40 mg once daily, Day 7, fed", "result": "9 (2) h"}, {"measurement": "Tmax, median and range", "setting": "[1]; 40 mg once daily, Day 7, fed", "result": "1.5 (0.5-5) h"}, {"measurement": "AUC0-24, mean (SD)", "setting": "[1]; 120 mg once daily, Day 1, fed", "result": "4876 (1024) ng × h/mL"}, {"measurement": "Cmax, mean (SD)", "setting": "[1]; 120 mg once daily, Day 1, fed", "result": "887 (291) ng/mL"}, {"measurement": "Tmax, median and range", "setting": "[1]; 120 mg once daily, Day 1, fed", "result": "3 (0.5-8) h"}, {"measurement": "AUC0-24, mean (SD)", "setting": "[1]; 120 mg once daily, Day 7, fed", "result": "5816 (1315) ng × h/mL"}, {"measurement": "Cmax, mean (SD)", "setting": "[1]; 120 mg once daily, Day 7, fed", "result": "1039 (343) ng/mL"}, {"measurement": "T 1/2, mean (SD)", "setting": "[1]; 120 mg once daily, Day 7, fed", "result": "12 (2) h"}, {"measurement": "Tmax, median and range", "setting": "[1]; 120 mg once daily, Day 7, fed", "result": "2.5 (1-4)^ h"}, {"measurement": "AUC0-24, mean (SD)", "setting": "[1]; 360 mg once daily, Day 1, fed", "result": "19335 (3111) ng × h/mL"}, {"measurement": "Cmax, mean (SD)", "setting": "[1]; 360 mg once daily, Day 1, fed", "result": "3220 (1171) ng/mL"}, {"measurement": "Tmax, median and range", "setting": "[1]; 360 mg once daily, Day 1, fed", "result": "3 (2-5) h"}, {"measurement": "AUC0-24, mean (SD)", "setting": "[1]; 360 mg once daily, Day 7, fed", "result": "21825 (3955) ng × h/mL"}, {"measurement": "Cmax, mean (SD)", "setting": "[1]; 360 mg once daily, Day 7, fed", "result": "3812 (1282) ng/mL"}, {"measurement": "T 1/2, mean (SD)", "setting": "[1]; 360 mg once daily, Day 7, fed", "result": "9 (2) h"}, {"measurement": "Tmax, median and range", "setting": "[1]; 360 mg once daily, Day 7, fed", "result": "2 (1-3) h"}, {"measurement": "half-life", "setting": "[1]; 40 mg once daily, Day 1, fed, read-out: T 1/2, mean (SD) (converted)", "result": 5, "unit": "h"}, {"measurement": "half-life", "setting": "[1]; 120 mg once daily, Day 1, fed, read-out: T 1/2, mean (SD) (converted)", "result": 4, "unit": "h"}, {"measurement": "half-life", "setting": "[1]; 360 mg once daily, Day 1, fed, read-out: T 1/2, mean (SD) (converted)", "result": 4, "unit": "h"}, {"measurement": "half-life", "setting": "[1]; once-daily dosing, read-out: t1/2 on Day 7 (converted)", "result": "~10", "unit": "h"}, {"measurement": "Steady state achieved by", "setting": "[1]; once-daily 40 to 360 mg", "result": "~5", "unit": "days"}]}]}
